Activity calls are given as the source filed them. The rule behind the calls is not given here.
Columns and labels:
[1] = AUC (0 to t) in Sprague-Dawley rat at 1 mg/kg, iv; format: ADME, organism-based; details: in vivo
MC-38 [2] = test: Inhibition of cell proliferation in mouse MC38 cells cocultured with condition medium of M2 macrophages at 10 to 100 nM incubated for 20 hrs by CCK8 assay; format: functional, cell-based; details: dose 10-100 nM
[3] = Oral bioavailability in Sprague-Dawley rat at 10 mg/kg; format: ADME, organism-based; details: in vivo
[4] = Terminal half-life in Sprague-Dawley rat at 1 mg/kg, iv; format: ADME, organism-based; details: in vivo, read-out: beta t1/2 (converted)
MC-38 [5] = test: Antitumor activity against mouse MC38 cells allografted in C57BL/6 mouse model assessed as reduction in tumor volume at 20 mg/kg, ip administered once daily for 14 days relative to control; format: functional; parameters: scale not given: the % may be the effect or the level left; details: time 14 day
MC-38 [6] = test: Induction of apoptosis in mouse MC38 cells cocultured with condition medium of M2 macrophages assessed as late apoptotic cells at 100 nM by Annexin V/PI staining based flow cytometric analysis (reference value: 1.66 %); format: functional
[7] = biological target: T1, Macrophage colony-stimulating factor 1 receptor (Mus musculus) (UniProt P09581); test: Inhibition of CSF-1R signaling pathway activation in female C57BL/6 mouse BMDM cells assessed as reduction in ERK phosphorylation preincubated with compounds for 4 hrs followed by M-CSF stimulation and measured after 30 mins by Western blot analysis; format: cell-based; details: dose 10-100 nM, time 4.5 hrs
T1 sequence (whole entry): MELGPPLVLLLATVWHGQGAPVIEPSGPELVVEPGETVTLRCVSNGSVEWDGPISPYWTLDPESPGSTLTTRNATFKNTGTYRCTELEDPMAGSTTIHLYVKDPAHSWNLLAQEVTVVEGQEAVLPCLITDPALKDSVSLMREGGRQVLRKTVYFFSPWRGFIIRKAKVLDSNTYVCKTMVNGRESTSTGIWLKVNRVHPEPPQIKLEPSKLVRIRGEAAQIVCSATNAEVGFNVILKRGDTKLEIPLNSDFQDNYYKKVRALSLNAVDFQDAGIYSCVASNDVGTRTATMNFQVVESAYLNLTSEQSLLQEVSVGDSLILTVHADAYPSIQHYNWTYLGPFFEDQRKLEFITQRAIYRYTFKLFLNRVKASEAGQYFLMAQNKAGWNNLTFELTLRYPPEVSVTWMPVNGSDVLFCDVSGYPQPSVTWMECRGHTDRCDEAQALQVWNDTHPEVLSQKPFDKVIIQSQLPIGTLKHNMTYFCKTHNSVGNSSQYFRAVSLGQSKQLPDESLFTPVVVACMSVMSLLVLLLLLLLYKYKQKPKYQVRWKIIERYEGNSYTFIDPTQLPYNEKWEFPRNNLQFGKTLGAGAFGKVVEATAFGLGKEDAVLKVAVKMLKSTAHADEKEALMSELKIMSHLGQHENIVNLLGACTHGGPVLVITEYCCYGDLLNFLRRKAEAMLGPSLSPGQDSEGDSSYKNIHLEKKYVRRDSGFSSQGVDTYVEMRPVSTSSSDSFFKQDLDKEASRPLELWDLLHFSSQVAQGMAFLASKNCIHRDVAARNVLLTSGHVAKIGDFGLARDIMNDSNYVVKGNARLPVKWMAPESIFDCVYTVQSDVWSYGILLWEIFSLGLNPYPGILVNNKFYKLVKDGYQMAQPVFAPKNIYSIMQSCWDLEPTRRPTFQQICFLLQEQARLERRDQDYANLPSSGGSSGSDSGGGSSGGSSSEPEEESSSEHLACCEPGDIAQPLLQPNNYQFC

MC-38 [8] = test: Antitumor activity against mouse MC38 cells allografted in C57BL/6 mouse model assessed as downregulation of […] mRNA expression in tumor at 10 to 20 mg/kg, ip administered once daily for 14 days by qPCR analysis; format: functional, organism-based; details: dose 10-20 mg/kg, time 14.0 day
[9] = biological target: T2, Macrophage colony-stimulating factor 1 receptor (Homo sapiens, UniProt P07333); test: Inhibition of CSF-1R (unknown origin)
MC-38 [10] = test: Induction of apoptosis in mouse MC38 cells assessed as early apoptotic cells at 30 nM by Annexin V/PI staining based flow cytometric analysis (reference value: 1.91 %); format: functional
MC-38 [11] = test: Antitumor activity against mouse MC38 cells allografted in C57BL/6 mouse model assessed as reduction in tumor weight at 10 to 20 mg/kg, ip administered once daily for 14 days; format: functional, organism-based; details: dose 10-20 mg/kg, time 14.0 day
[12] = MRT (0 to t) in Sprague-Dawley rat at 1 mg/kg, iv; format: ADME, organism-based; details: in vivo
[13] = biological target: T1, Macrophage colony-stimulating factor 1 receptor (Mus musculus); test: Induction of thermal stabilization of CSF-1R in female C57BL/6 mouse BMDM cells assessed as increase in melting temperature at 100 nM incubated for 1 hrs under 52 to 68 degreeC by CETSA; format: cell-based
BMDM [14] = test: (§1) Induction of repolarization of M2 like macrophage into M1 phenotype in female C57BL/6 mouse BMDM cells assessed as decrease in Chil3l mRNA expression at 10 to 100 nM stimulated with mouse IL4/IL-13 for 24 hrs followed by compound addition and measured after 24 hrs by qPCR analysis; format: functional, cell-based; details: dose 10-100 nM
[15] = biological target: T1, Macrophage colony-stimulating factor 1 receptor (Mus musculus); test: Inhibition of CSF-1R signaling pathway activation in female C57BL/6 mouse BMDM cells assessed as reduction in AKT phosphorylation at Ser473 residue at 100 nM preincubated with compounds for 4 hrs followed by M-CSF stimulation and measured after 30 mins by Western blot analysis; format: cell-based; details: time 4.5 hrs
MC-38 [16] = test: Antitumor activity against mouse MC38 cells allografted in C57BL/6 mouse model assessed as reduction in tumor weight at 10 mg/kg, ip administered once daily for 14 days relative to control; format: functional; parameters: scale not given: the % may be the effect or the level left; details: time 14 day
BMDM [17] = test: as §1, with “number of M2 macrophages by measuring reduction in CD206” for “Chil3l mRNA”, “immunofluorescence” for “qPCR”; format: functional, cell-based; details: dose 10-100 nM
MC-38 [18] = test: Antitumor activity against mouse MC38 cells allografted in C57BL/6 mouse model assessed as upregulation of Nos2 mRNA expression in tumor at 10 to 20 mg/kg, ip administered once daily for 14 days by qPCR analysis; format: functional, organism-based; details: dose 10-20 mg/kg, time 14.0 day
BMDM [19] = test: Induction of repolarization of M2 like macrophage into M1 phenotype in female C57BL/6 mouse BMDM cells assessed as decrease in Rental mRNA expression at 10 to 100 nM stimulated with mouse IL4/IL-13 for 24 hrs followed by compound addition and measured after 24 hrs by qPCR analysis; format: functional, cell-based; details: dose 10-100 nM
[20] = Tmax in Sprague-Dawley rat at 10 mg/kg, po; format: ADME, organism-based; details: in vivo
MC-38 [21] = test: Antitumor activity against mouse MC38 cells allografted in C57BL/6 mouse model assessed as reduction in tumor volume at 10 to 20 mg/kg, ip administered once daily for 14 days; format: functional, organism-based; details: dose 10-20 mg/kg, time 14.0 day
[22] = biological target: T2, Macrophage colony-stimulating factor 1 receptor; test: Inhibition of CSF-1R (unknown origin) at 1 uM
MC-38 [23] = test: Induction of apoptosis in mouse MC38 cells assessed as late apoptotic cells at 100 nM by Annexin V/PI staining based flow cytometric analysis (reference value: 0.85 %); format: functional

T2 sequence (P07333 whole entry): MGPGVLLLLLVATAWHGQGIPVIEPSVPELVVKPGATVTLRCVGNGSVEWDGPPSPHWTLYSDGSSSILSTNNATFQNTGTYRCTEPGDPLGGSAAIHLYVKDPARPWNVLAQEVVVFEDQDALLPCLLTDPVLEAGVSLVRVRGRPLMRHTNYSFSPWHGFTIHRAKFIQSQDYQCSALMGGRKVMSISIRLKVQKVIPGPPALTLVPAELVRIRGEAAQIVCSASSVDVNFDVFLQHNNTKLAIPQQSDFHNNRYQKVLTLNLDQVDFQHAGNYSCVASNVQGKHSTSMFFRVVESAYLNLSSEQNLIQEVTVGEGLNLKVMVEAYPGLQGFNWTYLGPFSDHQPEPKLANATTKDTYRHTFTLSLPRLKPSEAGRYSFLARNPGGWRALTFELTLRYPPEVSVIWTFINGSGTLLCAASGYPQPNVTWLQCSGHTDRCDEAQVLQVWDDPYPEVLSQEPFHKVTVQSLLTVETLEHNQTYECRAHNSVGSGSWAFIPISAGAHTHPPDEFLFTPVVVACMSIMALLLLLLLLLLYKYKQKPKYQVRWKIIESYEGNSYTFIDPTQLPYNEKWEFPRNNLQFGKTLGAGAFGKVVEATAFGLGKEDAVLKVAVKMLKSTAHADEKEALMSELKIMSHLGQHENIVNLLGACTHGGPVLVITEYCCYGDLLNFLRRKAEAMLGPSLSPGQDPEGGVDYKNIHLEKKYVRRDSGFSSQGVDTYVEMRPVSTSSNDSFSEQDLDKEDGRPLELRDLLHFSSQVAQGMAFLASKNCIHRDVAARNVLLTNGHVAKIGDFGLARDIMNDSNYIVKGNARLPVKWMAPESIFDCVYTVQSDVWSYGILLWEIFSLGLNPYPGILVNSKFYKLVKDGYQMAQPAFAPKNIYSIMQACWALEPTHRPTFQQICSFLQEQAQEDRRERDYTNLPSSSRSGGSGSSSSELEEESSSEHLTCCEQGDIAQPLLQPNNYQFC

AUC(0-t) [1]: 526 ng·h/mL
bioavailability [3]: 79.2%
half-life [4]: 1.2 h
inhibition [7]: Dose-dependent-effect
IC50 [9]: 20.1 nM
MRT last [12]: 1.6 h
Activity [13]: Active
inhibition [15]: Active
Tmax [20]: 1.13 h
inhibition [22]: Active
Compound: Cc1nc(NC(=O)N[C@@H]2CCCC[C@H]2O)ccc1Oc1c[nH]c2ncc(Cl)cc12
inhibition (MC-38 [2]): Active
Activity (MC-38 [5]): 54%
Activity (MC-38 [6]): 5.67%
Activity (MC-38 [8]): Active
Activity (MC-38 [10]): 1.71%
Activity (MC-38 [11]): Active; Lower Tumor Weight Observed Than That Of Plx3397 Treated Group
Activity (BMDM [14]): Active
Activity (MC-38 [16]): 39%
Activity (BMDM [17]): Active
Activity (MC-38 [18]): Active
Activity (BMDM [19]): Active
Activity (MC-38 [21]): Active; Better Activity Observed Than Plx3397-Treated Group
Activity (MC-38 [23]): 1.01%
